# Laboratory results reported in patent US20230090868A1, “ANTI-CD30 ANTIBODY-DRUG CONJUGATES AND THEIR USE FOR THE TREATMENT OF NON-HODGKIN LYMPHOMA” (Seagen Inc., priority 2020, published 2023).
# Read-outs that look alike come from different tables or passages of the source.
# How the values were obtained:
# [1] = system: xenograft models of Hodgkin disease; conditions: SCID mouse xenograft models of Hodgkin disease; cited from earlier work
# CD30+ cell lines = conditions: in vitro; cited from earlier work
# P-gp [2] = target: T1, P-gp (Homo sapiens, UniProt P08183); conditions: controlled studies; cited from earlier work
# [3] = cited from earlier work
# [4] = Phase I trial dose-escalation phase: maximum tolerated dose (MTD) and dose-limiting toxicities; format: in vivo, human; conditions: lenalidomide in combination with BV; by mouth Days 1-21 of each 21-day cycle; rel/ref DLBCL patients
# From the text: The maximum tolerated dose (MTh) was defined as the dose level immediately below the dose level at which 2 patients of a cohort (of 2 to 6 patients) experienced dose-limiting toxicity during the first cycle. Dose escalations proceeded until the MTD was reached.
# Hematologic dose limiting toxicity (DLT) was defined as any of the following that occured during the first cycle that were attributed as possibly, probably, or definitely related to the study treatment: • Grade 4 neutropenia >7 day duration • Grade 4 infection with grade 3 or 4 neutropenia (life-threatening sepsis) • Grade 4 thrombocytopenia associated with life-threatening bleeding or requiring more than 1 transfusion • Treatment delay >14 days due to hematologic toxicity
# Non-hematologic DLT was defined as any possibly, probably, or definitely related grade 3 or grade 4 non-hematologic toxicity that occured during the first cycle with the following specific exceptions: • Grade 3 or 4 nausea, vomiting, or anorexia that returns to Grade 1 prior to the start of Cycle 2 • Grade 3 metabolic abnormalities (e.g., hyperglycemia) • Grade 3 fatigue
# Dose escalations proceeded as follows after the occurrence of dose-limiting toxicity (DLT):
# Dose escalation occurred after all patients in the cohort completed the first cycle according to the following scheme: […]
# R/R DLBCL = conditions: cited from earlier work
# [5] = single 25 mg dose with a high-fat meal, healthy subjects; cited from earlier work
# P-gp [6] = target: T1, P-gp; conditions: in vitro; cited from earlier work
# T1 sequence (P08183 whole entry): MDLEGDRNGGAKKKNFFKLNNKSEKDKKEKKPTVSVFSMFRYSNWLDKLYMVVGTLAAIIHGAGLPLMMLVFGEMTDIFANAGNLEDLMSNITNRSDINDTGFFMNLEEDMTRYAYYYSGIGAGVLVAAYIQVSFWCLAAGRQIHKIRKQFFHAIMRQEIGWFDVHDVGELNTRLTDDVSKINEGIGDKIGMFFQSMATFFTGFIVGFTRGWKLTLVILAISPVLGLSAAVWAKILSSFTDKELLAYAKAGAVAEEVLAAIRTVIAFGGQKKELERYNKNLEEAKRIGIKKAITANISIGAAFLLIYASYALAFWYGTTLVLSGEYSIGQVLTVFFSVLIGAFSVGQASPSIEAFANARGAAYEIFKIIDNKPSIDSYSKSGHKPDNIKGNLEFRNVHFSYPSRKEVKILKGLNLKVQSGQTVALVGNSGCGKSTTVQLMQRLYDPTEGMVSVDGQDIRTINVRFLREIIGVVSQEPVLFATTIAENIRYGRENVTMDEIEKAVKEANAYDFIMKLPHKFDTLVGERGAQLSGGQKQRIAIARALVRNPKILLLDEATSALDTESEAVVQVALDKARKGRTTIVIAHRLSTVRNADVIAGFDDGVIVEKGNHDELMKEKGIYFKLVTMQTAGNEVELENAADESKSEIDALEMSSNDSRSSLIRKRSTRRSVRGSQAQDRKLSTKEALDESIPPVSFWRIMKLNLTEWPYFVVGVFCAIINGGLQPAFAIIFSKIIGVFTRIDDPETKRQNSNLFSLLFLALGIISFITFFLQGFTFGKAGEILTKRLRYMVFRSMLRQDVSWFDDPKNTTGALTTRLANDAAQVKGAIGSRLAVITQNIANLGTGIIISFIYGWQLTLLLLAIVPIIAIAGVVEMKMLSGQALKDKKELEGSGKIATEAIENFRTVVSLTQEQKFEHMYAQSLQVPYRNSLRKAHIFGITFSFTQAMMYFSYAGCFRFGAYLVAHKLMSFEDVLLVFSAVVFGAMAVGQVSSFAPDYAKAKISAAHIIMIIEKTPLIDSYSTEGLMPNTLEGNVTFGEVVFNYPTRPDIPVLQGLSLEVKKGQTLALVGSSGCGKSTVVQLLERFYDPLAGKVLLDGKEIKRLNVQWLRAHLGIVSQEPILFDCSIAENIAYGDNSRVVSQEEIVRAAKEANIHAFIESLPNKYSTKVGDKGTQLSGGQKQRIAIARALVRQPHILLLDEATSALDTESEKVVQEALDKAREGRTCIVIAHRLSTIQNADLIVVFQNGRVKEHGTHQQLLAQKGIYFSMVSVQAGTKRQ
Compound,antitumor activity [1],growth arrest of CD30+ cell lines (CD30+ cell lines),PK interactions with P-gp substrates/inhibitors (P-gp [2]),drug accumulation ([3]; multiple doses at the recommended dosage),"time post-dose at which maximum plasma concentrations occurred ([3]; single and multiple doses, subjects with MM or MDS, (approximately 0.5 to 6 hours)) [h]",maximum tolerated dose (MTD) [4] [mg],"median progression-free survival (PFS) (R/R DLBCL; GCB subjects, P=0.550) [weeks]","median progression-free survival (PFS) (R/R DLBCL; all subjects with R/R DLBCL, P=0.041) [weeks]","median progression-free survival (PFS) (R/R DLBCL; non-germinal-center B-cell-like (non-GCB) subjects, P=0.021) [weeks]",objective response rate (ORR) (R/R DLBCL; subjects with R/R DLBCL) [%],decrease in area under the concentration-time curve [5] [%],decrease in maximum plasma concentration (Cmax) [5] [%],substrate of P-gp (P-gp [6])
cAC10: chimeric IgG1 monoclonal antibody that specifically binds CD30,pronounced antitumor activity,induces growth arrest,–,–,–,–,–,–,–,–,–,–,–
"Nc1cccc2c1CN(C1CCC(=O)NC1=O)C2=O (racemic) [lenalidomide, (RS)-3-(4-Amino-1-oxo-1,3-dihydro-2H-isoindol-2-yl)piperidine-2,6-dione]",–,–,does not have clinically significant PK interactions,does not result in drug accumulation,1,20,10.1,13.6,15.1,27.5,~20,~50,weak substrate
